# Reference: ChEMBL document CHEMBL1201862, “PubChem BioAssay data set” (2004)
# Active and inactive are the calls of the source.
# Columns and labels:
# [1] = biological target: Glyceraldehyde-3-phosphate dehydrogenase (Homo sapiens, UniProt P04406)
# [2] = biological target: T1, DNA dC->dU-editing enzyme APOBEC-3A (Homo sapiens, UniProt P31941); test: Dose Response confirmation of small molecule APOBEC3A DNA Deaminase Inhibitors via a fluorescence-based single-stranded DNA deaminase assay. [Related pubchem assays (depositor defined):AID493011, AID493024]; format: functional
# [3] = biological target: T2, DNA dC->dU-editing enzyme APOBEC-3G (Homo sapiens, UniProt Q9HC16); format: functional
# [4] = biological target: T3, Voltage-gated N-type calcium channel alpha-1B subunit/Amyloid beta A4 precursor protein-binding family A member 1 (Homo sapiens, UniProt Q00975+Q02410); format: protein assay
# [5] = biological target: T3, Voltage-gated N-type calcium channel alpha-1B subunit/Amyloid beta A4 precursor protein-binding family A member 1; format: protein assay; remark: listed apart in the source
# [6] = biological target: T4, Acyl-homoserine lactone acylase PvdQ (Pseudomonas aeruginosa (strain LESB58), UniProt Q9I194); test: P. aeruginosa PvdQ acylase inhibitors, dose response, biochemical, fluorescence, plate reader and imaging, cherry-picks (AID 493231)
# T4 sequence (Q9I194 whole entry): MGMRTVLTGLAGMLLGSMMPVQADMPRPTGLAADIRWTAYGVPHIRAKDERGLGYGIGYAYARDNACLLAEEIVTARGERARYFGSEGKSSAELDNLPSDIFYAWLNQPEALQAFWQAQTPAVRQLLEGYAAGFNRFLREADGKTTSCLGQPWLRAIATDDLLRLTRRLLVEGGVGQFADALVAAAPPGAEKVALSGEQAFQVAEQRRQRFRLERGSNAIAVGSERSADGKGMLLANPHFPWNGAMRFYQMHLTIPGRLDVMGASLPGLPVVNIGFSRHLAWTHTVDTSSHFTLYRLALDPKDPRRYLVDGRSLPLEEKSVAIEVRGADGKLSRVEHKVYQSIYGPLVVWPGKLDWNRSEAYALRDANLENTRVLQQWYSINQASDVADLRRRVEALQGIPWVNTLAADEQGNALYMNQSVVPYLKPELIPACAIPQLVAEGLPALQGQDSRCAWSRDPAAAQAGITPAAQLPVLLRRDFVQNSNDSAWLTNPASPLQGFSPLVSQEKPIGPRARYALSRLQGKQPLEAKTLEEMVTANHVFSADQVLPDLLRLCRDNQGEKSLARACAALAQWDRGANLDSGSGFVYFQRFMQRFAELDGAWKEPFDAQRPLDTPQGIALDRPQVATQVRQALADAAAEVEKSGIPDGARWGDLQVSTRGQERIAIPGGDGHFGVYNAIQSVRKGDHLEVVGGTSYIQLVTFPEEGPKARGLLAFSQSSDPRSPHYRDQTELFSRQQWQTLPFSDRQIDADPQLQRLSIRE
# [7] = enhancers of respiration in Yfh1-depleted yeast, dose response, Friedreich's ataxia, plus single-dose screen (AID 1465); format: functional;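 also: yeast depleted of Yfh1p frataxin homolog grown on glycerol needing respiration; WST-1 tetrazolium dye reduction as measure of cellular dehydrogenase metabolic activity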
# Leucine aminopeptidase = biological target: T5, Leucine aminopeptidase (Plasmodium falciparum 3D7, UniProt Q8IL11); test: P. falciparum M17LAP inhibitors, primary screen, biochemical, fluorogenic H-Leu-NHMec substrate, 1536-well (AID 1619); format: functional
# T5 sequence (Q8IL11 whole entry): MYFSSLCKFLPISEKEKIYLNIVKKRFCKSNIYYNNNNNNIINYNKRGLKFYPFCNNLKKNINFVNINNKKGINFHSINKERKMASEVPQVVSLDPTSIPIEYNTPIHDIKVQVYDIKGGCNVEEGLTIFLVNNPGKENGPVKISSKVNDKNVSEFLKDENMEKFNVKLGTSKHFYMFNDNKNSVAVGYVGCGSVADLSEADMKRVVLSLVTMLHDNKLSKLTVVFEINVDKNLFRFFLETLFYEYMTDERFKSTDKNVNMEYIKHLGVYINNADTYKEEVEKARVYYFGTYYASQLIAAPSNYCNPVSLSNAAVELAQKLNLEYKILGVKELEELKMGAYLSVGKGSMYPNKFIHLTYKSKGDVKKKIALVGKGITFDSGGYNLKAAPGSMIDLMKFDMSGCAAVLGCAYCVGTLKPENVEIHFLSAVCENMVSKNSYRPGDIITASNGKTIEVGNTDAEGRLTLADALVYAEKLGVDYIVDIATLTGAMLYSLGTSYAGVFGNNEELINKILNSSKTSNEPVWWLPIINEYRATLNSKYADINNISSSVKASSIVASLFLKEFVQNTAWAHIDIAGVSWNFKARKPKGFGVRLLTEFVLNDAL
# Beta-galactosidase = Beta-galactosidase (Escherichia coli, UniProt Q8VNN2); test: beta-galactosidase enzyme inhibitors and activators, dose response, artefact control for CCR6 antagonist project, biochemical, E. coli enzyme, set 3 (AID 504712); format: functional
# [8] = biological target: T6, C-C chemokine receptor type 6 (Homo sapiens, UniProt P51684); test: CCR6 receptor antagonists, dose response, cell-based, luminescent beta-arrestin readout (AID 504728); format: functional
# T6 sequence (P51684 whole entry): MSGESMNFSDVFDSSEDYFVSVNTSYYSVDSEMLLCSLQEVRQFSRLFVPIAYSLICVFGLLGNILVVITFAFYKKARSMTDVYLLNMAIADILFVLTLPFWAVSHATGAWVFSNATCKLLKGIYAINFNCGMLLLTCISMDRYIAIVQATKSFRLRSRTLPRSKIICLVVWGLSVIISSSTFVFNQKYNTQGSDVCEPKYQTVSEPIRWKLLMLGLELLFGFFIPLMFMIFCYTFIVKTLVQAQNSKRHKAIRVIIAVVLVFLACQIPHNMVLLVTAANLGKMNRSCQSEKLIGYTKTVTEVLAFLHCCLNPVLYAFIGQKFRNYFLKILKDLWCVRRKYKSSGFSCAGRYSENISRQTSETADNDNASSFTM
# [9] = biological target: T2, DNA dC->dU-editing enzyme APOBEC-3G; test: Dose Response confirmation of small molecule APOBEC3G DNA Deaminase Inhibitors via a fluorescence-based single-stranded DNA deaminase assay. [Related pubchem assays (depositor defined):AID493012, AID493028]; format: functional
# [10] = biological target: Glucose-6-phosphate 1-dehydrogenase (Homo sapiens, UniProt P11413); test: human G6PD enzyme inhibitors, dose response, selectivity assay for P. falciparum G6PD inhibitor project, biochemical, fluorescence (AID 504792); format: functional
# [11] = biological target: T1, DNA dC->dU-editing enzyme APOBEC-3A; test: APOBEC3A DNA deaminase inhibitors, dose response, biochemical (AID 504722); format: functional
# [12] = biological target: Peroxisome proliferator-activated receptor gamma/Nuclear receptor coactivator 2 (Homo sapiens, UniProt P37231); format: functional;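 also: agonist potency for raising coactivator recruitment to the receptor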
# [13] = biological target: Peroxisome proliferator-activated receptor gamma/Nuclear receptor coactivator 3 (Homo sapiens, UniProt P37231); format: functional;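 also: agonist potency for raising coactivator recruitment to the receptor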
# [14] = biological target: Peroxisome proliferator-activated receptor gamma/Nuclear receptor coactivator 1 (Homo sapiens, UniProt P37231); format: functional;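 also: agonist potency as compounds enhance coactivator SRC-1 recruitment to PPARgamma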
# [15] = biological target: T7, Heat shock factor protein 1 (Mus musculus, UniProt P38532); test: HSF1 potentiators in luciferase reporter cells, confirmation, cell-based, NIH3T3, luminescence, dose retest (AID 435004); format: functional;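 also: stress induced by proteasome inhibitor MG132 added 30 min after compound; luciferase reporter driven by HSF1 response element in NIH3T3 cells; actives raise luminescence as potentiators of the MG132 stress response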
# T7 sequence (P38532 whole entry): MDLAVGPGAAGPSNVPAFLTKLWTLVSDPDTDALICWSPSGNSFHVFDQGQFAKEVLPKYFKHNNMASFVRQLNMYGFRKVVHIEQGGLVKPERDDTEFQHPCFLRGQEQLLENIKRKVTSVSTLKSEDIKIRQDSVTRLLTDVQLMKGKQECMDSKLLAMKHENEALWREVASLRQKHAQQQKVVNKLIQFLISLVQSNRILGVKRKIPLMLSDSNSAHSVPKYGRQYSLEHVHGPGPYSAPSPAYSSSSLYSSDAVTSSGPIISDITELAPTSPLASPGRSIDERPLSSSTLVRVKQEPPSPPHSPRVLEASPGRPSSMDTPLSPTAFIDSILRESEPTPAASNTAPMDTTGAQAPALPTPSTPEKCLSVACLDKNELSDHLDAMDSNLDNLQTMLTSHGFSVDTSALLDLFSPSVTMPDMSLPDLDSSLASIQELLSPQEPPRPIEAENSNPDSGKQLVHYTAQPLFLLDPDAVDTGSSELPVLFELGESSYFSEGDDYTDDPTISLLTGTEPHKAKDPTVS
# [16] = biological target: Neurotensin receptor type 1 (Homo sapiens, UniProt P30989); format: functional;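 also: Image-based confirmatory dose-response assay measuring agonist activity at NTR1; NTR1-expressing U2OS osteosarcoma cells imaged for beta-arrestin GFP spot formation; agonist potency where compounds increase beta-arrestin recruitment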
# [17] = THP-1 cell cytotoxicity, dose response, cytotoxicity control for Vif-APOBEC3G degradation inhibitor project, THP-1 cells (AID 1117359); format: functional; conditions: Human immunodeficiency virus 1, THP-1
# [18] = biological target: T3, Voltage-gated N-type calcium channel alpha-1B subunit/Amyloid beta A4 precursor protein-binding family A member 1; test: disruptors of Mint-PDZ/N-type channel peptide interaction – biochemical, HTRF, set 2, SAR follow-up (AID 434980); format: functional
# [19] = biological target: T3, Voltage-gated N-type calcium channel alpha-1B subunit/Amyloid beta A4 precursor protein-binding family A member 1; test: disruptors of Mint-PDZ/N-type channel peptide interaction – biochemical, HTRF, SAR follow-up (AID 2489); format: functional
# Hexokinase = biological target: T8, Hexokinase (Trypanosoma brucei, UniProt Q38C41); test: Confirmation assay for inhibitors of Trypanosoma brucei hexokinase 1-Analogue-first series. [Related pubchem assays (depositor defined):AID1430, AID1632, AID2516, AID2560, AID2579, AID2600, AID449725, AID492951]; format: functional
# T8 sequence (Q38C41 whole entry): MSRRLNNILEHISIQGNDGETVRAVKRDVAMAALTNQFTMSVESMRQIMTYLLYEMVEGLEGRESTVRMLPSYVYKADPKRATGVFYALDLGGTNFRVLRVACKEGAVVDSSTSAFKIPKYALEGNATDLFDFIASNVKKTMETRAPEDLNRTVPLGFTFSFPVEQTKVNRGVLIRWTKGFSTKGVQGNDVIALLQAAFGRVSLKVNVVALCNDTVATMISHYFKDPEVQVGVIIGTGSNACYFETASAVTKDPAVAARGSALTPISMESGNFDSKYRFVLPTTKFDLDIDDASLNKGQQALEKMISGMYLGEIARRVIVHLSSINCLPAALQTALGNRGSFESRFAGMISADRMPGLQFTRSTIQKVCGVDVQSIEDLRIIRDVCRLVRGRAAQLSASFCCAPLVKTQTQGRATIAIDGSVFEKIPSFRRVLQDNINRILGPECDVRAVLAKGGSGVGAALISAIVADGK
# T1 sequence (P31941 whole entry): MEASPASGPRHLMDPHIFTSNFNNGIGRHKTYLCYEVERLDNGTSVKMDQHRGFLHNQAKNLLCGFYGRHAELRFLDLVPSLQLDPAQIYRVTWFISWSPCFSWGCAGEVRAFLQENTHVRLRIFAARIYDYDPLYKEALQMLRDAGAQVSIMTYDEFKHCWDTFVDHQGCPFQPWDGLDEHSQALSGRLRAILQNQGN
# T2 sequence (Q9HC16 whole entry): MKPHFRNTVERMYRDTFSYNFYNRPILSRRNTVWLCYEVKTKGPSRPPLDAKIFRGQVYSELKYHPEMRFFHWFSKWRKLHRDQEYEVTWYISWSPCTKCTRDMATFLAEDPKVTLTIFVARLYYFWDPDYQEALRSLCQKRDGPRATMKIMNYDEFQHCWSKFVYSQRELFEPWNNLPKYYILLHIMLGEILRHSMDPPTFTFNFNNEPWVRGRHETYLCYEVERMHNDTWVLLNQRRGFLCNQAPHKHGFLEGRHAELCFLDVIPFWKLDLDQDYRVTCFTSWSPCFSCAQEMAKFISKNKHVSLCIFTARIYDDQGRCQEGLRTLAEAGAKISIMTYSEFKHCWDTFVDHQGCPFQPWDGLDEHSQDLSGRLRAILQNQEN
# T3 sequence (Q00975 whole entry): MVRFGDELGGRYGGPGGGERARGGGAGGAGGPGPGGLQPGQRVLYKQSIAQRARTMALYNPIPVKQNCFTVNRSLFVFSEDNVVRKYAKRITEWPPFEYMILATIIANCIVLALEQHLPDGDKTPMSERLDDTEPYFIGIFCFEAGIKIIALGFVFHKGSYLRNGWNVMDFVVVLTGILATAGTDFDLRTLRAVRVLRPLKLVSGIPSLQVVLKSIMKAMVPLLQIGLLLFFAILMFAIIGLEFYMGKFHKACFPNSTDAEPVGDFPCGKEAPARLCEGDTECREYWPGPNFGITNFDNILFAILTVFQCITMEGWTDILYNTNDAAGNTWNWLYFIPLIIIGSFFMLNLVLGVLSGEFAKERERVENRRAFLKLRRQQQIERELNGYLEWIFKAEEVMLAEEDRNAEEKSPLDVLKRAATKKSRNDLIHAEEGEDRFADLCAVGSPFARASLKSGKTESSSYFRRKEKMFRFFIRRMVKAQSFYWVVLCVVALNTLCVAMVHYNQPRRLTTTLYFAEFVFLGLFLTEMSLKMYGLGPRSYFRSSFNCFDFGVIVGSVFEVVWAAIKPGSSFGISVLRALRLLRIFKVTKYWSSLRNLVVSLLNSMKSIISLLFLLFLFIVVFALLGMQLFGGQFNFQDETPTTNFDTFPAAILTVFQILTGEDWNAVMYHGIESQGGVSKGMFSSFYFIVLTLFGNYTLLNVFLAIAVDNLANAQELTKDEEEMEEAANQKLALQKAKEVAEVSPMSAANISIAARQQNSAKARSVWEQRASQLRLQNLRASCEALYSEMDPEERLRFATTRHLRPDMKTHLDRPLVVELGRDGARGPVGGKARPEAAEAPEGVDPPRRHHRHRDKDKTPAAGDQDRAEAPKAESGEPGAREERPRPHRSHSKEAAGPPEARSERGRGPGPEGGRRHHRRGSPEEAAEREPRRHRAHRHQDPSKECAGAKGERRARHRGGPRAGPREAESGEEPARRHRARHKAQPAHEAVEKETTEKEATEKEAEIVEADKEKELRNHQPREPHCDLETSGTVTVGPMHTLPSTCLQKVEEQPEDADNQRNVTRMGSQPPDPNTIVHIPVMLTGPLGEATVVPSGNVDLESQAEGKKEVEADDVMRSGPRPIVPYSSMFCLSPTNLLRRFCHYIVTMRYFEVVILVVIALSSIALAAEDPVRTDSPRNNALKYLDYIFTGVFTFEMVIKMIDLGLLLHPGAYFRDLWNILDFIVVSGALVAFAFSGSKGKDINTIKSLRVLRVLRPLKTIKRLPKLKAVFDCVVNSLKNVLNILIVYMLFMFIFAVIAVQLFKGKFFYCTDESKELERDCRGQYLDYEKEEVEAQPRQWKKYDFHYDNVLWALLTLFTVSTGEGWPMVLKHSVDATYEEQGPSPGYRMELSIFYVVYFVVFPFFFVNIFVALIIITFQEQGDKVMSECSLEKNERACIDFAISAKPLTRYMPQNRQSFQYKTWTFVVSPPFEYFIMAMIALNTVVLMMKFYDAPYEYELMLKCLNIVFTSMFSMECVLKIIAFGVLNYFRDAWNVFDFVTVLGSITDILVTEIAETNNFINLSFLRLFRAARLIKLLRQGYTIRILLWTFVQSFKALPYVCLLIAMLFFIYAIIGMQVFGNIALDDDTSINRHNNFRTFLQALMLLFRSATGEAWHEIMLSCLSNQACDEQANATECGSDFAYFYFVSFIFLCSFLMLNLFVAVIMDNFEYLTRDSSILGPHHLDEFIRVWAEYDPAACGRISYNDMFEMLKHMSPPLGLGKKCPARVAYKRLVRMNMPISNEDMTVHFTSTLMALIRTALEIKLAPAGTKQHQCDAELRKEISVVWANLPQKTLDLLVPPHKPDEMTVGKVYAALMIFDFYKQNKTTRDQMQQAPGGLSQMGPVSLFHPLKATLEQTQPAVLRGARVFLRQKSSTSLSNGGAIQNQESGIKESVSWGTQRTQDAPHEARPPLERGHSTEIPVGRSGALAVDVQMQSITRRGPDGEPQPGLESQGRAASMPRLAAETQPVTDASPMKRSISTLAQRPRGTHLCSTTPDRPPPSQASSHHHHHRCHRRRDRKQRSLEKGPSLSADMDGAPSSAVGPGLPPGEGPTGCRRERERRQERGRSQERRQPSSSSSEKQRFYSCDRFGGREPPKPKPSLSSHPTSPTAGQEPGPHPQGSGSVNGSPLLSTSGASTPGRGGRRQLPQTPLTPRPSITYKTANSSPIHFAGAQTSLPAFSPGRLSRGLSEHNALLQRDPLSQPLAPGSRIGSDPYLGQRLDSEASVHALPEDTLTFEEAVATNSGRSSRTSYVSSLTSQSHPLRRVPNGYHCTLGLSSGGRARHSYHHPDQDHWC
# T3 sequence (Q02410 whole entry): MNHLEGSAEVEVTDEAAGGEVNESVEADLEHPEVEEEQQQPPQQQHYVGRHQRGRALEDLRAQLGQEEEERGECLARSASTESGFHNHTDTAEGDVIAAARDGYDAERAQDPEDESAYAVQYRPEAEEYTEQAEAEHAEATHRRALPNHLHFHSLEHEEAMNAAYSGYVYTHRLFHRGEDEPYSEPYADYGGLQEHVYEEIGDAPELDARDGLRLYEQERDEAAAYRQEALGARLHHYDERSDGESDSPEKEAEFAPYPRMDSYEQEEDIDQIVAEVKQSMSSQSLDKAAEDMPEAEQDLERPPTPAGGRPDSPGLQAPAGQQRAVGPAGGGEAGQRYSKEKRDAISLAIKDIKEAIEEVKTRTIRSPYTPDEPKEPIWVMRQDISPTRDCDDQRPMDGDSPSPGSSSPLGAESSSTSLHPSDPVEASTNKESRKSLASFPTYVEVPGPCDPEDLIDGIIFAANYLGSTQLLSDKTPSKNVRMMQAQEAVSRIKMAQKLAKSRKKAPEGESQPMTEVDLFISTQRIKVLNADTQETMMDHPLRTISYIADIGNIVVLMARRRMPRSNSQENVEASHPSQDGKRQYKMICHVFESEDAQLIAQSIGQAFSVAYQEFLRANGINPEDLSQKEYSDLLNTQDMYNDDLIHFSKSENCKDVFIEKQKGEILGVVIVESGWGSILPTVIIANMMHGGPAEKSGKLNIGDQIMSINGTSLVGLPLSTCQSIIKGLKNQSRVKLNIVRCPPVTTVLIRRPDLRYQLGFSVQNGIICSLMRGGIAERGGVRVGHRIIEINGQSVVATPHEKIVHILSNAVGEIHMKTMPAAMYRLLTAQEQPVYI
# Sequence of Glyceraldehyde-3-phosphate dehydrogenase (P04406 whole entry): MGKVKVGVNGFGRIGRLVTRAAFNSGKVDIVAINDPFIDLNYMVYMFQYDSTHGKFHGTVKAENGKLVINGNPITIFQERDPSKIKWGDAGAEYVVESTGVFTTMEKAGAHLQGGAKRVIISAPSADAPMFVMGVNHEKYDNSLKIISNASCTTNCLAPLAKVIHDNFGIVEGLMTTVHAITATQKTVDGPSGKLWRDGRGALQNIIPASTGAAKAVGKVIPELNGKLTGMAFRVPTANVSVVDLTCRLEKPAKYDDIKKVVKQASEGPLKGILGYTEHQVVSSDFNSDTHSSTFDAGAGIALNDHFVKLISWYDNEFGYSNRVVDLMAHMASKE
# Sequence of Glucose-6-phosphate 1-dehydrogenase (P11413 whole entry): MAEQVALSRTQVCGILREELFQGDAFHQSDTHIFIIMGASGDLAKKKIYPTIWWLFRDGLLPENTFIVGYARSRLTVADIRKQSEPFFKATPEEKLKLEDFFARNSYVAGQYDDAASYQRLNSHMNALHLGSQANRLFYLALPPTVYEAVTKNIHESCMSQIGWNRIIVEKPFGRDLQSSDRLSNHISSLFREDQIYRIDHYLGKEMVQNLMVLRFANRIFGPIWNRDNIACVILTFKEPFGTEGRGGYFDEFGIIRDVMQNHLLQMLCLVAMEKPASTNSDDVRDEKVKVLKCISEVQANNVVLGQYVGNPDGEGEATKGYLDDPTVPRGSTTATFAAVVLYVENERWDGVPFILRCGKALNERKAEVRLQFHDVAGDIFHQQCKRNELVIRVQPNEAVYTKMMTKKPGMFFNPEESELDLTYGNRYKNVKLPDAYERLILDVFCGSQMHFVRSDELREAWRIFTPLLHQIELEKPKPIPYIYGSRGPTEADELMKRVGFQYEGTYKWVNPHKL
# Sequence of Neurotensin receptor type 1 (P30989 whole entry): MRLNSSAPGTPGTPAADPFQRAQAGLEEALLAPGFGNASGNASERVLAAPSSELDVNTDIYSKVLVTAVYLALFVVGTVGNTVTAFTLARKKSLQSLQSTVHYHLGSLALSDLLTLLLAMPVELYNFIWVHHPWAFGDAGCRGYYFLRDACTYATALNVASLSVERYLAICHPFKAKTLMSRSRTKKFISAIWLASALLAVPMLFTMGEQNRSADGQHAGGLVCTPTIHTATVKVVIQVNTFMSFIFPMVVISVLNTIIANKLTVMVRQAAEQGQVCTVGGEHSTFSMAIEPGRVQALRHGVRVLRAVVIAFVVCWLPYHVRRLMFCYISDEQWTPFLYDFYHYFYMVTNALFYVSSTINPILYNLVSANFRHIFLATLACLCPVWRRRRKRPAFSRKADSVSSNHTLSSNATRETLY
smiles,measurement,setting,value
CCN1CCN(C2=C(Cl)C(=O)N(c3cccc(C(F)(F)F)c3)C2=O)CC1,IC50,[1],> 50 µM (inconclusive)
CCOc1ccc(CN2C(=O)c3ccccc3C2=O)cc1C(=O)NC1CC(C)(C)NC(C)(C)C1,IC50,[2],2.87 µM (active)
same,IC50,[3],3.18 µM (active)
CC(C)NC(=O)COC(=O)/C=C/c1ccco1,IC50,[4],9.71 µM (active)
same,IC50,[5],> 50 µM (inactive)
CCN1CCN(c2ccc(NC(=O)c3ccc4c(c3)OCCO4)cc2C)CC1,IC50,[2],4.49 µM (active)
same,IC50,[3],4.12 µM (active)
N#CC(Sc1ccccn1)c1ccc(Cl)cc1 (stereo not given),AC50,[6],7.09 µM (active)
Cc1cc(C)cc(N2CC(c3nc4ccccc4n3C)CC2=O)c1 (stereo not given),IC50,[2],9.16 µM (active)
same,IC50,[3],16.1 µM (active)
COCCNC(=O)/C(C#N)=C/c1ccc(N2CCOCC2)o1,EC50,[7],> 100 µM (active)
same,IC50,Leucine aminopeptidase,113 µM (active)
CC1(C)C2CC[C@]3(C)C(CC=C4[C@@H]5C[C@@](C)(CO)[C@@H]6C[C@@]5(CC[C@]43C)C(=O)O6)[C@@]2(C)CC[C@@H]1O (stereo not given in full),IC50,Beta-galactosidase,> 66.6 µM (inactive)
same,IC50,[8],> 66.6 µM (inactive)
O=C(NCCCN1CCOCC1)c1sc2cc([N+](=O)[O-])ccc2c1Cl,IC50,[9],6.34 µM (active)
same,IC50,[10],> 80 µM (inactive)
same,IC50,[11],> 100 µM (inactive)
N#Cc1ccc(-c2ccc(Cl)cc2)nc1Oc1ccc(F)cc1,EC50,[12],> 79.4 µM (not active)
same,EC50,[13],> 79.4 µM (not active)
same,EC50,[14],> 79.4 µM (not active)
same,EC50,[15],> 260 µM (inconclusive)
O=C(/C=C/c1cccnc1)c1ccc(F)c(F)c1,EC50,[16],11.4 µM (active)
Cc1ccsc1/C=N/n1c(S)nnc1-c1ccccn1,IC50,[9],4.89 µM (active)
same,IC50,[11],> 100 µM (inactive)
COc1ccc(/N=C(\C)C2=C(O)SCC2=O)cc1,AC50,[6],12.4 µM (active)
Oc1ccc(NCc2ccccc2OCc2ccccc2)cc1,EC50,[12],> 79.4 µM (not active)
same,EC50,[13],> 79.4 µM (not active)
same,EC50,[14],> 79.4 µM (not active)
same,CC50,[17],22.7 µM (active)
same,IC50,[10],> 80 µM (inactive)
COc1ccc(NC2c3ncccc3C(=O)N2Cc2cccs2)cc1 (stereo not given),IC50,cells,45.6 µM (active)
Cc1ccc(-n2c(=O)c3sccc3n(Cc3cc(=O)n4ccccc4n3)c2=O)cc1,IC50,cells,26.4 µM (active)
CC(=O)Oc1ccc(N2C(=O)C3C4C=CC(O4)C3C2=O)cc1 (stereo not given),IC50,[18],18.8 µM (active)
same,IC50,[19],> 56.8 µM (inactive)
CCCCCCCC(=O)Nc1cc(Cl)ccc1C(=O)O,IC50,Hexokinase,> 25 µM (inactive)
COc1cc(C)c(C)cc1S(=O)(=O)Nc1cccnc1,IC50,[1],> 100 µM (not active)
COc1ccc2c(=O)n(-c3ccccc3)sc2c1,IC50,Hexokinase,3 µM (active)
Cc1cccc(N2C(=O)C3C(C2=O)C2(C)C=CC3(C)O2)c1 (stereo not given),IC50,[18],8.93 µM (active)
same,IC50,[19],27.6 µM (active)
O=C(Nc1cc(Cl)ccc1C(=O)O)c1ccc(C2CC2)cc1,IC50,Hexokinase,5.77 µM (active)
